Laboratory results as given in article PMC8359193, “Summary of reference chemicals evaluated by the fish short‐term reproduction assay, OECD TG229, using Japanese Medaka, Oryzias latipes” (Journal of Applied Toxicology, 2021).
Entries after “also recorded” stand apart in the source; their conditions may differ.

Tested on: Japanese medaka (Oryzias latipes)
Experiment: Fish short-term reproduction assay (FSTRA, OECD TG229), 21-day flow-through exposure
Settings: for Fertility rate (%) / Mortality (%) Female / Mortality (%) Male / Number of fertilized eggs / Number of total eggs / SSC Female / SSC Male / VTG (ng/mg of liver) Female / VTG (ng/mg of liver) Male: 21 days; for GSI Female / GSI Male / HSI Female / HSI Male / Length Female / Length Male / Weight Female / Weight Male: at completion of exposure; for effect on fecundity (number of total eggs), in words: within the test concentrations
Method in brief: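 Japanese medaka (NIES-R strain, 16 ± 2 weeks old) were exposed in flow-through tanks for 3 weeks, three males and three females per tank, four replicate tanks per group, with a dilution water control. Concentrations were spaced by a factor of 2–5. Eggs were collected daily and counted as fertilized or unfertilized.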

[1] = female, measured conc. 0.748 mg/L
[2] = female, measured conc. 2.46 mg/L
[3] = female, measured conc. 10.0 mg/L
[4] = male, measured conc. 0.748 mg/L

With CCC(C)(C)c1ccc(O)cc1 [PTH, 4‐tert‐Pentylphenol] the “LOEC on VTG induction in male (in molarity)” value (hepatic VTG, 21-day exposure) was 590 nM, the “LOEC for VTG induction in males” value (hepatic VTG, 21-day exposure, measured conc.) was 96.5 µg/L and the “effect on male GSI, in words” value (highest concentration, 21-day exposure) was “significant decreasing”. The “LOEC (in molarity) for male VTG: times higher than that of E2” value (in vivo) was 14,000 times, the “LOEC on male VTG induction: times smaller than the LOEC for CMP” value (in vivo) was over 8 times and the “Fertility rate (%)” value (measured conc. 96.5 μg/L) was 92%. The “Mortality (%) Female” value (measured conc. 96.5 μg/L) was 8.3%, the “Mortality (%) Male” value (measured conc. 96.5 μg/L) was 0% and the “Number of fertilized eggs” value (measured conc. 96.5 μg/L) was 18. The “Number of total eggs” value (measured conc. 96.5 μg/L) was 19 ± 6.6 /female/day, the “SSC Female” value (measured conc. 96.5 μg/L) was 0 ± 0 and the “SSC Male” value (measured conc. 96.5 μg/L) was 98 ± 8.0. The “VTG (ng/mg of liver) Female” value (measured conc. 96.5 μg/L) was 1,680 ± 240 ng/mg of liver, the “VTG (ng/mg of liver) Male” value (measured conc. 96.5 μg/L) was 83.2 ± 106 ng/mg of liver and the “GSI Female” value (measured conc. 96.5 μg/L) was 9.5%. The “GSI Male” value (measured conc. 96.5 μg/L) was 0.74%, the “HSI Female” value (measured conc. 96.5 μg/L) was 4.3% and the “HSI Male” value (measured conc. 96.5 μg/L) was 2.5%. For the same compound, the “Length Female” value (measured conc. 96.5 μg/L) was 34.8 mm, the “Length Male” value (measured conc. 96.5 μg/L) was 35.8 mm and the “Weight Female” value (measured conc. 96.5 μg/L) was 470 mg. For the same compound, the “Weight Male” value (measured conc. 96.5 μg/L) was 532 mg, the “Fertility rate (%)” value (measured conc. 342 μg/L) was 93% and the “Mortality (%) Female” value (measured conc. 342 μg/L) was 8.3%. For the same compound, the “Mortality (%) Male” value (measured conc. 342 μg/L) was 0%, the “Number of fertilized eggs” value (measured conc. 342 μg/L) was 17 and the “Number of total eggs” value (measured conc. 342 μg/L) was 18 ± 3.6 /female/day. The “SSC Female” value (measured conc. 342 μg/L) was 0 ± 0, the “SSC Male” value (measured conc. 342 μg/L) was 94 ± 14 and the “VTG (ng/mg of liver) Female” value (measured conc. 342 μg/L) was 2,820 ± 1,540 ng/mg of liver. The “VTG (ng/mg of liver) Male” value (measured conc. 342 μg/L) was 621 ± 265 ng/mg of liver, the “GSI Female” value (measured conc. 342 μg/L) was 8.1% and the “GSI Male” value (measured conc. 342 μg/L) was 0.67%. For the same compound, the “HSI Female” value (measured conc. 342 μg/L) was 4.5%, the “HSI Male” value (measured conc. 342 μg/L) was 3.1% and the “Length Female” value (measured conc. 342 μg/L) was 34.5 mm. For the same compound, the “Length Male” value (measured conc. 342 μg/L) was 34.7 mm, the “Weight Female” value (measured conc. 342 μg/L) was 476 mg and the “Weight Male” value (measured conc. 342 μg/L) was 516 mg. For the same compound, the “Fertility rate (%)” value (measured conc. 1,100 μg/L) was 74%, the “Mortality (%) Female” value (measured conc. 1,100 μg/L) was 17% and the “Mortality (%) Male” value (measured conc. 1,100 μg/L) was 8.3%. The “Number of fertilized eggs” value (measured conc. 1,100 μg/L) was 10, the “Number of total eggs” value (measured conc. 1,100 μg/L) was 13 ± 3.6 /female/day and the “SSC Female” value (measured conc. 1,100 μg/L) was 0 ± 0. The “SSC Male” value (measured conc. 1,100 μg/L) was 95 ± 5.0, the “VTG (ng/mg of liver) Female” value (measured conc. 1,100 μg/L) was 5,770 ± 2,880 ng/mg of liver and the “VTG (ng/mg of liver) Male” value (measured conc. 1,100 μg/L) was 9,740 ± 800 ng/mg of liver. The “GSI Female” value (measured conc. 1,100 μg/L) was 8.4%, the “GSI Male” value (measured conc. 1,100 μg/L) was 0.51% and the “HSI Female” value (measured conc. 1,100 μg/L) was 4.7%. For the same compound, the “HSI Male” value (measured conc. 1,100 μg/L) was 4.1%, the “Length Female” value (measured conc. 1,100 μg/L) was 33.3 mm and the “Length Male” value (measured conc. 1,100 μg/L) was 34.5 mm. For the same compound, the “Weight Female” value (measured conc. 1,100 μg/L) was 438 mg, the “Weight Male” value (measured conc. 1,100 μg/L) was 498 mg and the “effect on fecundity (number of total eggs), in words” value (21-day exposure) was “significant decrease”.

In the case of CCCCCCCCCCCCOS(=O)(=O)[O-].[Na+] [SDS, Sodium dodecyl sulfate], the “effect on fertility rate, in words” value (21-day exposure) is reported as “significant decrease; also recorded: significant reduction”, the “effect on male hepatic VTG, in words” value (21-day exposure) is reported as “no VTG induction” and the “GSI Female” value [1] is reported as 10.9%. The “HSI Female” value [1] was 4.8%, the “Length Female” value [1] was 35.6 mm and the “Weight Female” value [1] was 547 mg. The “GSI Female” value [2] was 10.8%, the “HSI Female” value [2] was 4.8% and the “Length Female” value [2] was 36.6 mm. The “Weight Female” value [2] was 573 mg, the “GSI Female” value [3] was 11.0% and the “HSI Female” value [3] was 4.9%. The “Length Female” value [3] was 36.1 mm, the “Weight Female” value [3] was 573 mg and the “GSI Male” value [4] was 0.88%. For the same compound, the “HSI Male” value [4] was 2.3%, the “Length Male” value [4] was 36.7 mm and the “Weight Male” value [4] was 544 mg. The “GSI Male” value (male, measured conc. 2.46 mg/L) was 0.91%, the “HSI Male” value (male, measured conc. 2.46 mg/L) was 2.0% and the “Length Male” value (male, measured conc. 2.46 mg/L) was 36.7 mm. For the same compound, the “Weight Male” value (male, measured conc. 2.46 mg/L) was 519 mg, the “GSI Male” value (male, measured conc. 10.0 mg/L) was 1.17% and the “HSI Male” value (male, measured conc. 10.0 mg/L) was 2.2%. For the same compound, the “Length Male” value (male, measured conc. 10.0 mg/L) was 35.6 mm, the “Weight Male” value (male, measured conc. 10.0 mg/L) was 493 mg and the “Fertility rate (%)” value (measured conc. 0.748 mg/L) was 95%. The “Mortality (%) Female” value (measured conc. 0.748 mg/L) was 0%, the “Mortality (%) Male” value (measured conc. 0.748 mg/L) was 0% and the “Number of fertilized eggs” value (measured conc. 0.748 mg/L) was 27. For the same compound, the “Number of total eggs” value (measured conc. 0.748 mg/L) was 29 ± 3.9 /female/day, the “SSC Female” value (measured conc. 0.748 mg/L) was 0 ± 0 and the “SSC Male” value (measured conc. 0.748 mg/L) was 107 ± 8.7. The “VTG (ng/mg of liver) Female” value (measured conc. 0.748 mg/L) was 3,780 ± 305 ng/mg of liver, the “VTG (ng/mg of liver) Male” value (measured conc. 0.748 mg/L) was 3.0 ± 4.2 ng/mg of liver and the “Fertility rate (%)” value (measured conc. 2.46 mg/L) was 93%. The “Mortality (%) Female” value (measured conc. 2.46 mg/L) was 0%, the “Mortality (%) Male” value (measured conc. 2.46 mg/L) was 0% and the “Number of fertilized eggs” value (measured conc. 2.46 mg/L) was 27. For the same compound, the “Number of total eggs” value (measured conc. 2.46 mg/L) was 30 ± 2.7 /female/day, the “SSC Female” value (measured conc. 2.46 mg/L) was 0 ± 0 and the “SSC Male” value (measured conc. 2.46 mg/L) was 112 ± 11. For the same compound, the “VTG (ng/mg of liver) Female” value (measured conc. 2.46 mg/L) was 4,930 ± 189 ng/mg of liver, the “VTG (ng/mg of liver) Male” value (measured conc. 2.46 mg/L) was 6.6 ± 11 ng/mg of liver and the “Fertility rate (%)” value (measured conc. 10.0 mg/L) was 85%. For the same compound, the “Mortality (%) Female” value (measured conc. 10.0 mg/L) was 0%, the “Mortality (%) Male” value (measured conc. 10.0 mg/L) was 0% and the “Number of fertilized eggs” value (measured conc. 10.0 mg/L) was 25. For the same compound, the “Number of total eggs” value (measured conc. 10.0 mg/L) was 30 ± 1.8 /female/day, the “SSC Female” value (measured conc. 10.0 mg/L) was 0 ± 0 and the “SSC Male” value (measured conc. 10.0 mg/L) was 110 ± 3.5. The “VTG (ng/mg of liver) Female” value (measured conc. 10.0 mg/L) was 4,520 ± 906 ng/mg of liver, the “VTG (ng/mg of liver) Male” value (measured conc. 10.0 mg/L) was 1.0 ± 0.5 ng/mg of liver and the “effect on fecundity (number of total eggs), in words” value (21-day exposure) was “no significant effect”.
